Laboratory results: PubChem BioAssay (NCI)
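The compound was tested at five concentrations on cells cultured in 96-well plates, with a 48-hour exposure period. Definition used: TGI = concentration required for complete inhibition of growth.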

Experiments:
Test in all cases: inhibition of tumour cell growth, NCI panel, 48 h
HL-60(TB) leukemia = system: HL-60(TB) leukemia
MCF7 breast = system: MCF7 breast
EKVX NSCLC = system: EKVX NSCLC
SK-MEL-5 melanoma = system: SK-MEL-5 melanoma
IGROV1 ovarian = system: IGROV1 ovarian
NCI-H23 lung = system: NCI-H23 lung
A498 renal = system: A498 renal
MALME-3M melanoma = system: MALME-3M melanoma
UACC-62 melanoma = system: UACC-62 melanoma
NCI/ADR-RES ovarian = system: NCI/ADR-RES ovarian
COLO 205 colon = system: COLO 205 colon
CAKI-1 renal = system: CAKI-1 renal
SK-OV-3 ovarian = system: SK-OV-3 ovarian
PC-3 prostate = system: PC-3 prostate
SW-620 colon = system: SW-620 colon
HCT-116 colon = system: HCT-116 colon
OVCAR-8 ovarian = system: OVCAR-8 ovarian
SR leukemia = system: SR leukemia
OVCAR-5 ovarian = system: OVCAR-5 ovarian
NCI-H226 lung = system: NCI-H226 lung
SN12C renal = system: SN12C renal
MDA-MB-435 = system: MDA-MB-435
NCI-H460 lung = system: NCI-H460 lung
DU-145 prostate = system: DU-145 prostate
MDA-N = system: MDA-N
786-0 renal = system: 786-0 renal
CCRF-CEM leukemia = system: CCRF-CEM leukemia
SNB-19 CNS = system: SNB-19 CNS
SF-268 CNS = system: SF-268 CNS
SF-539 CNS = system: SF-539 CNS
HOP-62 NSCLC = system: HOP-62 NSCLC
OVCAR-3 ovarian = system: OVCAR-3 ovarian
RXF 393 renal = system: RXF 393 renal
LOX IMVI melanoma = system: LOX IMVI melanoma
SK-MEL-2 melanoma = system: SK-MEL-2 melanoma
MDA-MB-231 breast = system: MDA-MB-231 breast
SF-295 CNS = system: SF-295 CNS
HS 578T breast = system: HS 578T breast
UACC-257 melanoma = system: UACC-257 melanoma
A549 NSCLC = system: A549 NSCLC
HT29 colon = system: HT29 colon
TK-10 renal = system: TK-10 renal
M14 melanoma = system: M14 melanoma
OVCAR-4 ovarian = system: OVCAR-4 ovarian
SK-MEL-28 melanoma = system: SK-MEL-28 melanoma
KM12 colon = system: KM12 colon
T-47D breast = system: T-47D breast
MOLT-4 leukemia = system: MOLT-4 leukemia
HCT-15 colon = system: HCT-15 colon
HCC-2998 colon = system: HCC-2998 colon
NCI-H522 lung = system: NCI-H522 lung
ACHN renal = system: ACHN renal

Measured: TGI

CCCCN=NNc1cn(C2OC(CO)C(O)C2O)c(=O)[nH]c1=O (configuration not stated)
> 100 µM: HL-60(TB) leukemia | MCF7 breast | EKVX NSCLC | SK-MEL-5 melanoma | IGROV1 ovarian | NCI-H23 lung | A498 renal | MALME-3M melanoma | UACC-62 melanoma | NCI/ADR-RES ovarian | COLO 205 colon | CAKI-1 renal | SK-OV-3 ovarian | PC-3 prostate | SW-620 colon | HCT-116 colon | OVCAR-8 ovarian | SR leukemia | OVCAR-5 ovarian | NCI-H226 lung | SN12C renal | MDA-MB-435 | NCI-H460 lung | DU-145 prostate | MDA-N | 786-0 renal | CCRF-CEM leukemia | SNB-19 CNS | SF-268 CNS | SF-539 CNS | HOP-62 NSCLC | OVCAR-3 ovarian | RXF 393 renal | LOX IMVI melanoma | SK-MEL-2 melanoma | MDA-MB-231 breast | SF-295 CNS | HS 578T breast | UACC-257 melanoma | A549 NSCLC | HT29 colon | TK-10 renal | M14 melanoma | OVCAR-4 ovarian | SK-MEL-28 melanoma | KM12 colon | T-47D breast | MOLT-4 leukemia | HCT-15 colon | HCC-2998 colon | NCI-H522 lung | ACHN renal
